# Data reported in patent US20080187508A1, “Treatment of Golmerular Basement Membrane Disease Involving Matrix Metalloproteinase-12” (BOYS TOWN NATIONAL RESEARCH HOSPITAL, priority 2004, published 2008).
# “Also recorded” adds a separate entry of the source.
# Assays:
# [1] = test system: Alport mice; assay: immunofluorescence of kidney cryosections (fibronectin, collagen IV α1/α2) of treated Alport mice; type: in vivo, mouse; conditions: Alport mice treated from 4 to 7 weeks of age; MMI-270 50 μg/g I.P., BAY 129566 4 mg once daily oral gavage; fibronectin and collagen IV α1/α2 immunostaining
# Method: The Alport mouse model has been described (Cosgrove et al. (1996) Genes Dev. 10, 2981-2992). The control mice used were normal for both collagen α3(IV) alleles, and are a product of double heterozygote crosses for the Alport mutation. The use of animals in this study was performed in accordance with an approved institutional IACUC protocol. Extreme care was taken to minimize pain and discomfort suffered by the mice. MMP inhibitors were administered between 4 and 7 weeks of age. All drugs were freshly prepared prior to administration. BAY 129566 was emulsified in suspension with 0.5% carboxymethyl cellulose and 4 mg given once a day by oral gavage. MMI-270 was solubilized in 0.9% saline and administered by I.P. injection (50 μg/g body weight) once a day.
# Cryosections ([…]) of kidneys from 7-week-old normal and Alport mice were air dried, fixed by immersion in ice cold acetone, and subjected to immunohistochemical staining analysis using antibodies specific for MMP-3 (rabbit polyclonal anti-human MMP-3, a gift from Dr. Z. Gunza-Smith, Miami, Fla., used at 1:200 dilution), MMP-12 (rabbit polyclonal antibody against mouse MMP-12, kindly provided by Yoshikatsu Kaneko, used at 1:100 dilution), type IV collagen α1/2 chains (rabbit polyclonal against mouse type IV collagen, Biodesign, Inc., Saco, Me., used at 1:200 dilution), fibronectin (rabbit polyclonal against human plasma fibronectin, Sigma Chemical Co., St. Louis, Mo., used at 1:200). Anti-CD31 antibodies were directly conjugated to Alexa 568 (Molecular Probes, Eugene Oreg.) and purchased from Immunotech (Marseille, France). […] Images were collected using a Cytovision Ultra Image analysis system interfaced with an Olympus BH-2 fluorescence microscope.
# To assess the effect of these two compounds on Alport renal disease progression, Alport mice were administered either MMI 270 or BAY 129566 from 4 to 7 weeks of age. […] Cryosections were analyzed by immunofluorescence microscopy to assess for the degree of glomerular and tubulointerstitial damage using antibodies specific for collagen IV α1 and α2 chains, and fibronectin.
# [2] = target: MMP-9 (Homo sapiens, UniProt P14780); conditions: listed as BAY 129566; cited from earlier work
# [3] = test system: Alport mice; assay: transmission electron microscopy of glomerular basement membrane of treated Alport mice; type: in vivo, mouse
# Method: The Alport mouse model has been described (Cosgrove et al. (1996) Genes Dev. 10, 2981-2992). The control mice used were normal for both collagen α3(IV) alleles, and are a product of double heterozygote crosses for the Alport mutation. The use of animals in this study was performed in accordance with an approved institutional IACUC protocol. Extreme care was taken to minimize pain and discomfort suffered by the mice. MMP inhibitors were administered between 4 and 7 weeks of age. All drugs were freshly prepared prior to administration. BAY 129566 was emulsified in suspension with 0.5% carboxymethyl cellulose and 4 mg given once a day by oral gavage. MMI-270 was solubilized in 0.9% saline and administered by I.P. injection (50 μg/g body weight) once a day. Transmission electron microscopy was performed as previously described (Cosgrove et al., 1996, Genes Dev. 10, 2981-2992). Ultrastructural localization studies of type IV collagen were performed essentially as previously described (Bhattacharya et al., 2002). Kidneys from 7-week-old control and Alport mice were fixed by heart perfusion with 2% paraformaldehyde in PBS, and post-fixed in this same solution overnight. Ultrathin (70 nm) sections were reacted for 4 hours at room temperature with goat anti-collagen IV antibodies (Southern Biotechnology, Birmingham, Ala.). After six 10 minute washes in PBS, specimen were reacted for 2 hours at room temperature with 10 nanometers (nm) gold-conjugated anti-rabbit antibodies (Vector Laboratories, Burlingame, Calif.). Grids were washed as before, air-dried, counterstained with uranyl acetate, and examined using transmission electron microscopy. Propagermanium (3-oxygemylpropinic acid polymer, Sanwa Kagaku Kenkyusho Co., Nagoya, Japan) was administered orally (10 milligrams per kilogram (mg/kg) in 1% gelatin) by gavage once daily starting at 5 weeks of age, and kidneys harvested at 7 weeks of age. Three animals per group, Alport mice and control litter mates, gavaged with drug or vehicle only, were analyzed. […] Proteolytic degradation of the GBM in Alport syndrome might underlie the progressive irregular GBM damage and podocyte foot process effacement. Type IV collagen from Alport kidneys is more susceptible to proteolytic degradation in vitro than type IV collagen from healthy kidneys (Kalluri et al. (1997) J. Clin. Invest. 99, 2470-2478, presumably owing to the reduced number of interchain disulfide crosslinks (Gunwar et al. (1998) J. Biol. Chem. 273, 8767-8775).
# [4] = target: MMP-12 (Homo sapiens, UniProt P39900); conditions: listed as BAY-12-9566; cited from earlier work
# [5] = target: MMP-3 (Homo sapiens, UniProt P08254); conditions: listed as BAY 129566; cited from earlier work
# [6] = target: MMP-14 (Homo sapiens, UniProt P50281); conditions: listed as BAY 129566; cited from earlier work
# [7] = target: T1, MMP-2 (Homo sapiens, UniProt P08253); conditions: listed as BAY 129566; cited from earlier work
# T1 sequence (P08253 110-660): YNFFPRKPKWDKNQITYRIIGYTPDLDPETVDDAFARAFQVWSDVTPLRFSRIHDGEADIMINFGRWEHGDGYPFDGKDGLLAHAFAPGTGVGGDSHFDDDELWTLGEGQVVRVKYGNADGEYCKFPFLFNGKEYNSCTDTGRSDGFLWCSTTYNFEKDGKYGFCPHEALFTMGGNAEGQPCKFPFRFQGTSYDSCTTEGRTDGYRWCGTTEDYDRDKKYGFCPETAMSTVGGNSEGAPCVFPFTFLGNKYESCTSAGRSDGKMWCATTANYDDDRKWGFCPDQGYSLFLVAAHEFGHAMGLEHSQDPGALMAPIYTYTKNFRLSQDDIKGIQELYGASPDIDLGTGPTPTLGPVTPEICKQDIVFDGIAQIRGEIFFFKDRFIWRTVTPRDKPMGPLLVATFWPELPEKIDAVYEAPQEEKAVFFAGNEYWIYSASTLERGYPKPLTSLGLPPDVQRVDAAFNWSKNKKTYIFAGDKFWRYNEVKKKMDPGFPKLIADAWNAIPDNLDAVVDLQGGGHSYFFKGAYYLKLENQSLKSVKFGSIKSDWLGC
# [8] = test system: MMP-3 mRNA; assay: real time PCR of glomerular RNA of propagermanium-treated Alport mice: MMP-3; type: in vivo, mouse; conditions: propagermanium 10 mg/kg oral gavage once daily from 5 to 7 weeks of age
# Method: (§1) Isolation of mouse glomeruli was performed as described by Takemoto et al., (Am. J. Pathol. (2002)161, 799-805). The procedure involves cardiac perfusion with deactivated […] Dynabeads (Dynal Biotech, Oslo, Sweden), followed by collagenase digestion and glomerular isolation using a magnet.
# (§2) Total RNA samples were treated with RNase-free DNase I (Gibco BRL, USA) at 37° C. for 1 hour (hr) in order to remove any contaminating genomic DNA before reverse transcription (RT). Total RNA was reverse-transcribed by using Superscript II (GIBCO BRL) with oligo dt primers. To ensure that the quantitation of MMP transcripts in serial samples was not affected by differences in the amount of RNA added, integrity of RNA, or sample to sample differences in levels of RT-PCR inhibition, an internal control reaction targeting the GAPDH gene was run in multiplex with each reaction, and used to normalize results for MMP transcripts. […] The data were analyzed using comparative threshold cycle (CT) method. The mRNA quantity for the control is expressed as 1× sample and all other quantities from Alport samples are expressed as fold difference relative to the controls. No measurable fluorescence signal was detected in repeated RT-PCR runs in which the reverse transcriptase was omitted from the reaction mixture. […]
# [9] = test system: MMP-12 mRNA; assay: real time PCR of glomerular RNA of propagermanium-treated Alport mice: MMP-12; type: in vivo, mouse; conditions: propagermanium 10 mg/kg oral gavage once daily from 5 to 7 weeks of age, 50-fold in vehicle-treated
# Method: as §1, §2
# [10] = test system: MMP-9 mRNA; assay: real time PCR of glomerular RNA of propagermanium-treated Alport mice: MMP-9; type: in vivo, mouse; conditions: propagermanium 10 mg/kg oral gavage once daily from 5 to 7 weeks of age
# Method: as §1, §2
# [11] = test system: Alport mice; conditions: cited from earlier work
# MMP-12, sequence (P39900 106-470, species assumed): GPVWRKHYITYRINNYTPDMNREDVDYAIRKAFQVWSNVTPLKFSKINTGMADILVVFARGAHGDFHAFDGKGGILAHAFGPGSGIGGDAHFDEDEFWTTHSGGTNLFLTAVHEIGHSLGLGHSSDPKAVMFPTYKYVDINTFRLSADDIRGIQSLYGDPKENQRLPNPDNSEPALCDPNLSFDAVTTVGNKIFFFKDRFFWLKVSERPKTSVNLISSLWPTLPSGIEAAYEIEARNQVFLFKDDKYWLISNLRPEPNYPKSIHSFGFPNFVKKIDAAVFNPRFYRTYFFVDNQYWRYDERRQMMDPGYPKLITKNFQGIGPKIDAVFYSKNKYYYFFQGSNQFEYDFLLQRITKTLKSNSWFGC
# MMP-9, sequence (P14780 94-707, species assumed): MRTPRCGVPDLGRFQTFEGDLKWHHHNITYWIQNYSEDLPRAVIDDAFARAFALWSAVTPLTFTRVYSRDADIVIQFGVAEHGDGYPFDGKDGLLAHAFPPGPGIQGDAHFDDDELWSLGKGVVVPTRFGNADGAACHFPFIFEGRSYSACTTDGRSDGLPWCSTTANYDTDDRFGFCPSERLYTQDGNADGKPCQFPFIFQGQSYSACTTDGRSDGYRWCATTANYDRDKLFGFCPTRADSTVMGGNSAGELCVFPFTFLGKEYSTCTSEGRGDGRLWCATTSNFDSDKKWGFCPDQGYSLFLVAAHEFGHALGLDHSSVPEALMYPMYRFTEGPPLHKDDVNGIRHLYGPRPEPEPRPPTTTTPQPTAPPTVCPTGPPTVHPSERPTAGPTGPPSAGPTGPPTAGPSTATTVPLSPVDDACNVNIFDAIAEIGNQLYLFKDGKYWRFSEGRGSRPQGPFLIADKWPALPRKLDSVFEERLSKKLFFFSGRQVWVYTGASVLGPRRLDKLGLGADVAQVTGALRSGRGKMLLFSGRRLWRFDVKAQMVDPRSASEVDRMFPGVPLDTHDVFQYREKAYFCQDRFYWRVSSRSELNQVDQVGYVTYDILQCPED
# MMP-3, sequence (P08254 100-477, species assumed): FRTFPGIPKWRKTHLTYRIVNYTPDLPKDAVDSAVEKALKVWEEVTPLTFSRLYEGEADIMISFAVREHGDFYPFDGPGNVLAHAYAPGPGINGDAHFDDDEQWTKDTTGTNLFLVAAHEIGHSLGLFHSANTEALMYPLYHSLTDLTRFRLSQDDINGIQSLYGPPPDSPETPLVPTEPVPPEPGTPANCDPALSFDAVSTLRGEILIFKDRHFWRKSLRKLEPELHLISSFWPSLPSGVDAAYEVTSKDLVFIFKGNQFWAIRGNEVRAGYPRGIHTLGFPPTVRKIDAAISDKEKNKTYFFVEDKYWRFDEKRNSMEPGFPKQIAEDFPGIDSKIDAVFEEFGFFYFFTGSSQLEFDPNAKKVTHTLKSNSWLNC
compound,measurement,setting,value
O=C(C[C@H](CSc1ccccc1)C(=O)O)c1ccc(-c2ccc(Cl)cc2)cc1 [BAY 12-9566],glomerular and tubulointerstitial (renal) disease progression,[1],same degree of renal pathology as untreated Alport mice; also recorded: no obvious effect; also recorded: did not significantly affect; also recorded: no improvement
same,"MMP inhibitory effect, MMP-9",[2],inhibits
same,glomerular basement membrane architecture,"[3]; Alport mice treated with MMP inhibitor from 4 to 7 weeks of age, electron microscopy",no effect
same,"MMP inhibitory effect, MMP-12",[4],does not
same,"MMP inhibitory effect, MMP-3",[5],inhibits
same,"MMP inhibitory effect, MMP-14",[6],inhibits
same,"MMP inhibitory effect, MMP-2",[7],inhibits
3-oxygermylpropionic acid [propagermanium],induction of MMP-3 mRNA in glomeruli,[8],unaffected
same,MMP-12 mRNA induction in glomeruli relative to normal controls,[9],6 fold
same,induction of MMP-9 mRNA in glomeruli,[10],unaffected
same,glomerular basement membrane architecture,"[3]; Alport mice, propagermanium 10 mg/kg oral gavage once daily from 5 to 7 weeks of age, transmission electron microscopy",restores normal GBM architecture
CCOC(=O)[C@H](CCc1ccccc1)N[C@@H](C)C(=O)N1[C@H](C(=O)O)C[C@@H]2CCC[C@@H]21 [Ramipril],lifespan,[11],doubles
